The target in the assay is T1, C-terminal GST-tagged, recombinant, human IGF-1R, amino acids 954-1367 (Homo sapiens, UniProt P08069).
T1 construct: human IGF-1R, amino acids 954-1367 expressed by baculovirus in Sf21 cells; GST (C); purchased Cell Signaling Technology; host or cells: baculovirus in Sf21 cells
In words: IGF-1R kinase activity, homogenous time-resolved fluorescence (HTRF) in vitro kinase assay. It counts as biochemical. To be noted: IGF-1R kinase HTRF assay, ATP 50 μM, biotinylated peptide substrate 0.5 μM, 60 minutes at room temperature. The procedure:
IGF-1R kinase activity was assayed by a homogenous time-resolved fluorescence (HTRF) in vitro kinase assay (Mathis, G., HTRF(R) Technology. J Biomol Screen, 1999. 4(6): p. 309-314). Specifically, 10 μL C-terminal GST-tagged, recombinant, human IGF-1R, amino acids 954-1367 expressed by baculovirus in Sf21 cells (Cell Singaling Technology) was mixed with 10 μL inhibitor (various concentrations, 2% final DMSO) and 10 μL of ATP (50 μM final concentration) in reaction buffer (50 mM HEPES, pH […], 2 mM MnCl2, 0.1% BSA and 1 mM DTT, 40 μL final volume). The reaction was initiated by addition of 10 μL of biotinylated peptide substrate (Biotin-Ahx-[…], 0.5 μM final concentration) in a black 384-well plate (Packard). After 60 minutes incubation at room temperature, the reaction was quenched by addition of 60 μL stop/revelation buffer to give 30 mM EDTA, 1 μg/mL streptavidin-APC (Prozyme), 50 ng/mL anti-phosphotyrosine mAb PT66-K Europium Cryptate, 30 mM HEPES, pH 7.5, 120 mM KF, 0.005% Tween-20, 0.05% BSA). The quenched reaction was allowed to stand at room temperature for 1 hour and then read in a time-resolved fluorescence detector (Envision, Perkin Elmer) at 615 nm and 665 nm simultaneously. The ratio between the signal of 615 nm and 665 nm was used in the calculation of the IC50.
(Time-resolved FRET reads energy transfer from a long-lived donor to a nearby acceptor.)

SMILES strings stand for the structures.

T1 sequence (P08069 954-1367): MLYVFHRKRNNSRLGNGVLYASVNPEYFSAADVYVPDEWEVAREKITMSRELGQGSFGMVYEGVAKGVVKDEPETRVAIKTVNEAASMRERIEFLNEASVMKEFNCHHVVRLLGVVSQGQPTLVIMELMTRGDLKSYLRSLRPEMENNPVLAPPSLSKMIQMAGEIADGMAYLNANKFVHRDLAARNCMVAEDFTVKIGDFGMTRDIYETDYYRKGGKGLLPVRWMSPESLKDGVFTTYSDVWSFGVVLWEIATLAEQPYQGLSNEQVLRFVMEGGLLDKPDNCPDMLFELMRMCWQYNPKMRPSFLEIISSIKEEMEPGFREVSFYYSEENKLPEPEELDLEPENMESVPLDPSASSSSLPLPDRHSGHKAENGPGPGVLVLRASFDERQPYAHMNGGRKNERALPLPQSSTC

Turning to `COc1ccc(N2CCOCC2)cc1Nc1nccc(-c2c(-c3ccc(OCc4ccccc4)c(OC)c3)nc3ccccn23)n1` [Example 52, 4-{2-[4-(benzyloxy)-3-methoxyphenyl]imidazo[1,2-a]pyridin-3-yl}-N-(2-methoxy-5-morpholin-4-ylphenyl)pyrimidin-2-amine], the concentration for half-maximal inhibition (IC50) fell in the range of 101 to 500 nM.
For `COc1cc(-c2nc3ccccn3c2-c2ccnc(Nc3cccc(NC(=O)CN(C)C)c3)n2)ccc1OCc1ccccc1` [Example 66, N^1-{3-[(4-{2-[4-(benzyloxy)-3-methoxyphenyl]imidazo[1,2-a]pyridin-3-yl}pyrimidin-2-yl)amino]phenyl}-N^2,N^2-dimethylglycinamide] the value was 25 to 100 nM.
In the case of `CN(C)CC(=O)Nc1cccc(Nc2nccc(-c3c(-c4ccc(OCc5ccccc5)cc4)nc4ccccn34)n2)c1` [Example 67, N^1-{3-[(4-{2-[4-(benzyloxy)phenyl]imidazo[1,2-a]pyridin-3-yl}pyrimidin-2-yl)amino]phenyl}-N^2,N^2-dimethylglycinamide], the half-maximal inhibitory concentration (IC50) is 101 to 500 nM.
As to `CN(C)CCc1cccc(Nc2nccc(-c3c(-c4ccc(OCc5ccccc5)cc4)nn4ccccc34)n2)c1` [Example 75, 4-{2-[4-(benzyloxy)phenyl]pyrazolo[1,5-a]pyridin-3-yl}-N-{3-[2-(dimethylamino)ethyl]phenyl}pyrimidin-2-amine], the concentration for half-maximal inhibition (IC50) is less than 25 nM.
As to `CN(C)CCc1cccc(Nc2nccc(-c3c(-c4ccc(OCc5ccccc5)c(C(F)(F)F)c4)nc4ccccn34)n2)c1` [Example 49, 4-{2-[4-(benzyloxy)-3-(trifluoromethyl)phenyl]imidazo[1,2-a]pyridin-3-yl}-N-{3-[2-(dimethylamino)ethyl]phenyl}pyrimidin-2-amine], the IC50 was more than 1000 nM.
`COc1cc(-c2nc3ccccn3c2-c2ccnc(Nc3cnn(CCN(C)C)c3)n2)ccc1OCc1ccccc1` [Example 43, 4-{2-[4-(benzyloxy)-3-methoxyphenyl]imidazo[1,2-a]pyridin-3-yl}-N-{1-[2-(dimethylamino)ethyl]-1H-pyrazol-4-yl}pyrimidin-2-amine]: the IC50 lay in the range of 101 to 500 nM.
In the case of `COc1cc(-c2nc3ccccn3c2-c2ccnc(Nc3cccc(OCCN4CCCC4)c3)n2)ccc1OCc1ccccc1` [Example 30, 4-{2-[4-(benzyloxy)-3-methoxyphenyl]imidazo[1,2-a]pyridin-3-yl}-N-[3-(2-pyrrolidin-1-ylethoxy)phenyl]pyrimidin-2-amine] it was less than 25 nM; in that of `COc1ccc(N2CCSCC2)cc1Nc1nccc(-c2c(-c3ccc(OCc4ccccc4)c(OC)c3)nc3ccccn23)n1` [Example 73, 4-{2-[4-(benzyloxy)-3-methoxyphenyl]imidazo[1,2-a]pyridin-3-yl}-N-(2-methoxy-5-thiomorpholin-4-ylphenyl)pyrimidin-2-amine], 101 to 500 nM; in that of `COc1cc(N2CCC(N3CCSCC3)CC2)ccc1Nc1nccc(-c2c(-c3ccc(OCc4ccccc4)c(OC)c3)nc3ccccn23)n1` [Example 56, 4-{2-[4-(benzyloxy)-3-methoxyphenyl]imidazo[1,2-a]pyridin-3-yl}-N-[2-methoxy-4-(4-thiomorpholin-4-ylpiperidin-1-yl)phenyl]pyrimidin-2-amine], 101 to 500 nM.
In the case of `COc1cc(-c2nc3ccccn3c2-c2ccnc(Nc3cnn(CCN4CCOCC4)c3)n2)ccc1OCc1ccccc1` [Example 55, 4-{2-[4-(benzyloxy)-3-methoxyphenyl]imidazo[1,2-a]pyridin-3-yl}-N-[1-(2-morpholin-4-ylethyl)-1H-pyrazol-4-yl]pyrimidin-2-amine], the half-inhibitory concentration (IC50) was in the range of 25 to 100 nM.
For `COc1ccc(N2CCS(=O)(=O)CC2)cc1Nc1nccc(-c2c(-c3ccc(OCc4ccccc4)c(OC)c3)nc3ccccn23)n1` [Example 74, 4-{2-[4-(benzyloxy)-3-methoxyphenyl]imidazo[1,2-a]pyridin-3-yl}-N-[5-(1,1-dioxidothiomorpholin-4-yl)-2-methoxyphenyl]pyrimidin-2-amine] the value was less than 25 nM.
Consider `COc1cc(N2CCC(N3CCN(C)CC3)CC2)ccc1Nc1nccc(-c2c(-c3ccc(OCc4ccccc4)cc3)nc3ccccn23)n1` [Example 13, 4-{2-[4-(benzyloxy)phenyl]imidazo[1,2-a]pyridin-3-yl}-N-{2-methoxy-4-[4-(4-methylpiperazin-1-yl)piperidin-1-yl]phenyl}pyrimidin-2-amine], for which the IC50 was in the range of 101 to 500 nM.
For `c1ccc(COc2ccc(-c3nc4sccn4c3-c3ccnc(Nc4ccccc4)n3)cc2)cc1` [Example 78, 4-{6-[4-(benzyloxy)phenyl]imidazo[2,1-b][1,3]thiazol-5-yl}-N-phenylpyrimidin-2-amine] the value was more than 1000 nM.
Consider `CN(C)CCc1cccc(Nc2nccc(-c3c(-c4ccc(OCc5ccccc5)c(F)c4)nc4ccccn34)n2)c1` [Example 9, 4-{2-[4-(benzyloxy)-3-fluorophenyl]imidazo[1,2-a]pyridin-3-yl}-N-{3-[2-(dimethylamino)ethyl]phenyl}pyrimidin-2-amine], for which the IC50 is 25 to 100 nM.
With `COc1ccc(NC(=O)CN(C)C)cc1Nc1nccc(-c2c(-c3ccc(OCc4ccccc4)cc3)nc3ccccn23)n1` [Example 72, N^1-{3-[(4-{2-[4-(benzyloxy)phenyl]imidazo[1,2-a]pyridin-3-yl}pyrimidin-2-yl)amino]-4-methoxyphenyl}-N^2,N^2-dimethylglycinamide], the half-inhibitory concentration (IC50) is less than 25 nM.
For `COc1ccc(S(C)(=O)=O)cc1Nc1nccc(-c2c(-c3ccc(OCc4ccccc4)cc3)nc3ccccn23)n1` [Example 35, 4-{2-[4-(benzyloxy)phenyl]imidazo[1,2-a]pyridin-3-yl}-N-[2-methoxy-5-(methylsulfonyl)phenyl]pyrimidin-2-amine], the IC50 was 101 to 500 nM.
As to `COc1cc(NCC(=O)O)ccc1Nc1nccc(-c2c(-c3ccc(OCc4ccccc4)c(OC)c3)nc3ccccn23)n1` [Example 53, N-{4-[(4-{2-[4-(benzyloxy)-3-methoxyphenyl]imidazo[1,2-a]pyridin-3-yl}pyrimidin-2-yl)amino]-3-methoxyphenyl}glycine], the IC50 was 101 to 500 nM.
With `COc1cc(-c2nc3ccccn3c2-c2ccnc(Nc3ccc4c(c3)CNCC4)n2)ccc1OCc1ccccc1` [Example 62, N-(4-{2-[4-(benzyloxy)-3-methoxyphenyl]imidazo[1,2-a]pyridin-3-yl}pyrimidin-2-yl)-1,2,3,4-tetrahydroisoquinolin-7-amine], the concentration for half-maximal inhibition (IC50) is 25 to 100 nM.
`CN(C)CCc1cccc(Nc2nccc(-c3c(-c4ccc(OCc5cccc(F)c5)cc4)nc4ccccn34)n2)c1` [Example 19, N-{3-[2-(dimethylamino)ethyl]phenyl}-4-(2-{4-[(3-fluorobenzyl)oxy]phenyl}imidazo[1,2-a]pyridin-3-yl)pyrimidin-2-amine]: the IC50 fell in the range of 101 to 500 nM.
Turning to `CN(C)CCc1cccc(Nc2nccc(-c3c(-c4ccc(OCc5ccccc5)cc4)nn4cc(F)ccc34)n2)c1` [Example 77, 4-{2-[4-(benzyloxy)phenyl]-6-fluoropyrazolo[1,5-a]pyridin-3-yl}-N-{3-[2-(dimethylamino)ethyl]phenyl}pyrimidin-2-amine], the IC50 is more than 1000 nM.
Turning to `Cc1cc(OCc2ccccc2)ccc1-c1nc2ccccn2c1-c1ccnc(Nc2cccc(CCN(C)C)c2)n1` [Example 10, 4-{2-[4-(benzyloxy)-2-methylphenyl]imidazo[1,2-a]pyridin-3-yl}-N-{3-[2-(dimethylamino)ethyl]phenyl}pyrimidin-2-amine], the IC50 is 101 to 500 nM.
As for `COc1cc(-c2nc3sccn3c2-c2ccnc(Nc3ccccc3CN3CCCC3)n2)ccc1OCc1ccccc1` [Example 82, 4-{6-[4-(benzyloxy)-3-methoxyphenyl]imidazo[2,1-b][1,3]thiazol-5-yl}-N-[2-(pyrrolidin-1-ylmethyl)phenyl]pyrimidin-2-amine], the IC50 is more than 1000 nM.
Consider `COc1cc(-c2nc3ccccn3c2-c2ccnc(Nc3ccc(N4CCN(CCO)CC4)cc3)n2)ccc1OCc1ccccc1` [Example 44, 2-(4-{4-[(4-{2-[4-(benzyloxy)-3-methoxyphenyl]imidazo[1,2-a]pyridin-3-yl}pyrimidin-2-yl)amino]phenyl}piperazin-1-yl)ethanol], for which the half-maximal inhibitory concentration (IC50) fell in the range of 25 to 100 nM.
Take `CN(C)CCc1cccc(Nc2nccc(-c3c(-c4ccc(OCc5ccccc5)cc4F)nc4ccccn34)n2)c1` [Example 8, 4-{2-[4-(benzyloxy)-2-fluorophenyl]imidazo[1,2-a]pyridin-3-yl}-N-{3-[2-(dimethylamino)ethyl]phenyl}pyrimidin-2-amine]: the IC50 is 25 to 100 nM.
On to `CC(Oc1ccc(-c2nc3ccccn3c2-c2ccnc(Nc3cccc(CCN(C)C)c3)n2)cc1)c1ccccc1` (centres unmarked) [Example 21, N-{3-[2-(dimethylamino)ethyl]phenyl}-4-{2-[4-(1-phenylethoxy)phenyl]imidazo[1,2-a]pyridin-3-yl}pyrimidin-2-amine], for which the IC50 was 101 to 500 nM.
In the case of `COc1cc(-c2nc3ccccn3c2-c2ccnc(Nc3ccc(N4CCC(N(C)C)CC4)cc3)n2)ccc1OCc1ccccc1` [Example 36, 4-{2-[4-(benzyloxy)-3-methoxyphenyl]imidazo[1,2-a]pyridin-3-yl}-N-{4-[4-(dimethylamino)piperidin-1-yl]phenyl}pyrimidin-2-amine], the IC50 was less than 25 nM.

A word on the IC50: it is the concentration at which inhibition is half-maximal.

For the origin of these results see US8354422B2, “Pyrimidine inhibitors of kinase activity” (Abbott Laboratories Inc., priority 2009, dated 2013).
